Earlier results as cited in US20260183237A1, “NANOEMULSION WITHOUT PROPYLENE GLYCOL” (BIOFRONTERA, INC., priority 2023, published 2026).

- octanol-water partition coefficient (logP): around −3
SMILES: NCC(=O)CCC(=O)O [5-aminolevulinic acid]
